Data from patent US20130046098A1, “KINASE INHIBITORS” (THE UNIVERSITY OF MANCHESTER, priority 2009, published 2013).
“Also recorded” adds a separate entry of the source.

Key:
[1] = biological target: ROCK2 (Homo sapiens, UniProt O75116); assay: SelectScreen additional single point analysis; settings: 10 μM
[2] = tested on: polyclonal GEF16 transfected NIH3T3 cells; assay: Transformed colony forming assay (Toluidine blue)
Description: Following this incubation period the compound was then removed from the culture media and cells maintained in normal growth media for a further 10 days before the photographs shown were taken.
In FIG. 4A polyclonal GEF16 transfected cells were seeded at 2.0×10^5 cells per 30 mm dish and incubated over night. […] After a further 10 days culture in the absence of inhibitors the cells were stained with Toluidine blue and photographed to produce the images shown. […] These were incubated for 3 or 6 days then stained with Toluidine blue before being photographed.
Medium (containing the compound of interest—either Y27632 or the selected compounds of the invention—or DMSO control) was changed every 2 days. Formation of foci was analysed by Toluidine blue (Sigma-Aldrich, Poole, UK) staining after 10 days growth post confluence. […] Each assay was carried out in triplicate and the results shown are representative of at least three separate experiments.

[3] = tested on: GEF16 transformed donor cells and non-transformed NIH3T3-vector recipient cells; assay: Flow cytometric LY/PKH67 assay of gap junction intercellular communication (GJIC); format: cell-based, mouse; settings: 10 μM, p<0.05, FIG. 6B
Description: A novel flow cytometric assay was developed to measure the extent of gap junction intercellular communication (GJIC) using two differentially stained cell populations. Non-transformed recipient NIH3T3-vector cells were stained with PKH67 (Excitation 490, Emission 502, Sigma-Aldrich, Poole, UK) and GEF16 transformed donor cells were stained with Lucifer yellow (LY) (Excitation 427 nm, Emission 517 nm, Invitrogen Ltd., Paisley, UK) as follows.
A 1 ml suspension of 1×10^7 recipient cells in serum-free DMEM was mixed with an equal volume of 4 μM PKH67 solution and incubated for 5 min at room temperature. The reaction was terminated by adding 2 ml serum and incubating for 1 min. Cells were then washed three times with culture medium, and seeded at 1.5×10^6 cells/T-25 flask. […]
LY labelled donor cells were then harvested and 1×10^5 were added to the T25 flask containing the PKH67 labelled recipient cells plus 10 μM YA1 or DMSO control. After incubating for various time intervals, the co-cultured donor and recipient cells were collected and analysed using a BD FACS Aria™ (BD Biosciences, Oxford, UK). A 405 nm laser was used for LY excitation and emission was measured using a 515 nm to 545 nm band pass filter. GJIC between co-cultured donor and recipient cells was quantified as the percentage of LY and PKH67 double labelled cells.

[4] = tested on: single transformed colony derived GEF16 cells co-cultured with non-transformed vector cells; assay: Co-culture of single colony derived GEF16 cells with non-transformed vector cells; format: cell-based, mouse; settings: 10 μM, 10 days
Description: FIG. 5 illustrates that the growth suppressive effects of YA1 on single transformed colony derived GEF16 NIH3T3 cells and polyclonal Ras transformed NIH3T3 cells are more pronounced when these are co-cultured with non-transformed cells. In FIG. 5A single transformed colonies were picked from 10 day cultures of GEF16 polyclonal NIH3T3 cells and expanded. These cells were then seeded at 2.0×10^5 cells per 30 mm dish and treated with 10 μM of YA1 or DMSO control either immediately or following 10 days in culture. Duplicate wells were harvested for flow cytometry. In FIG. 5B a total of 2×10^5 cells per well were plated consisting of increasing numbers of non-transformed vector cells co-cultured with decreasing numbers of single transformed colony derived GEF16 cells. These were treated with 10 μM of either YA1 or DMSO for 10 days. In producing the results shown in FIG. 5C the same co-culture experiment described in connection with FIG. 5B was carried out substituting polyclonal Ras transformed NIH3T3 cells for GEF16 transformed cells.
Non-transformed vector cells mixed with decreasing numbers of cells expanded from single GEF16 transformed colonies were treated with the compound of the invention YA1, or with DMSO, and incubated for 10 days.

[5] = tested on: recombinant ROCK; assay: In vitro ROCK activity assay (Cyclex Rho-kinase immunoassay); format: biochemical; settings: FIG. 2A bar chart
Description: A specific assay was used to evaluate the ability of the compounds of the invention to inhibit ROCK. Rho-kinase activity was determined using an immunoassay as recommended by the manufacturer (Cyclex Co., Ltd., Nagano, Japan). Briefly, […] samples containing 10 mUnit (1 Unit incorporates 1 nmol of phosphate into GST-MBS/MYPT1 per minute at 30° C.) of recombinant ROCK with or without the compounds of the invention were aliquoted into a 96-well plate (100 μl/well), pre-coated with threonine Rho-kinase phosphorylation substrate. After 30 min incubation at 30° C., the plate was washed three times with PBS then incubated with 100 μl/well of HRP conjugated anti-phospho-specific antibody for 1 h at room temperature. The amount of phosphorylated substrate was determined by adding 100 μl/well of substrate reagent for 10 min and the reaction was terminated by adding 100 μl/well of the stop solution. The absorbance was measured on a 96-well plate reader at 450 nm (Dynex Technologies, West Sussex, UK). Each data point was performed in triplicate and the assay was repeated twice.

[6] = biological target: ROCK1 (Homo sapiens, UniProt Q13464); assay: SelectScreen additional single point analysis; settings: 10 μM
ROCK1, sequence (Q13464 whole entry): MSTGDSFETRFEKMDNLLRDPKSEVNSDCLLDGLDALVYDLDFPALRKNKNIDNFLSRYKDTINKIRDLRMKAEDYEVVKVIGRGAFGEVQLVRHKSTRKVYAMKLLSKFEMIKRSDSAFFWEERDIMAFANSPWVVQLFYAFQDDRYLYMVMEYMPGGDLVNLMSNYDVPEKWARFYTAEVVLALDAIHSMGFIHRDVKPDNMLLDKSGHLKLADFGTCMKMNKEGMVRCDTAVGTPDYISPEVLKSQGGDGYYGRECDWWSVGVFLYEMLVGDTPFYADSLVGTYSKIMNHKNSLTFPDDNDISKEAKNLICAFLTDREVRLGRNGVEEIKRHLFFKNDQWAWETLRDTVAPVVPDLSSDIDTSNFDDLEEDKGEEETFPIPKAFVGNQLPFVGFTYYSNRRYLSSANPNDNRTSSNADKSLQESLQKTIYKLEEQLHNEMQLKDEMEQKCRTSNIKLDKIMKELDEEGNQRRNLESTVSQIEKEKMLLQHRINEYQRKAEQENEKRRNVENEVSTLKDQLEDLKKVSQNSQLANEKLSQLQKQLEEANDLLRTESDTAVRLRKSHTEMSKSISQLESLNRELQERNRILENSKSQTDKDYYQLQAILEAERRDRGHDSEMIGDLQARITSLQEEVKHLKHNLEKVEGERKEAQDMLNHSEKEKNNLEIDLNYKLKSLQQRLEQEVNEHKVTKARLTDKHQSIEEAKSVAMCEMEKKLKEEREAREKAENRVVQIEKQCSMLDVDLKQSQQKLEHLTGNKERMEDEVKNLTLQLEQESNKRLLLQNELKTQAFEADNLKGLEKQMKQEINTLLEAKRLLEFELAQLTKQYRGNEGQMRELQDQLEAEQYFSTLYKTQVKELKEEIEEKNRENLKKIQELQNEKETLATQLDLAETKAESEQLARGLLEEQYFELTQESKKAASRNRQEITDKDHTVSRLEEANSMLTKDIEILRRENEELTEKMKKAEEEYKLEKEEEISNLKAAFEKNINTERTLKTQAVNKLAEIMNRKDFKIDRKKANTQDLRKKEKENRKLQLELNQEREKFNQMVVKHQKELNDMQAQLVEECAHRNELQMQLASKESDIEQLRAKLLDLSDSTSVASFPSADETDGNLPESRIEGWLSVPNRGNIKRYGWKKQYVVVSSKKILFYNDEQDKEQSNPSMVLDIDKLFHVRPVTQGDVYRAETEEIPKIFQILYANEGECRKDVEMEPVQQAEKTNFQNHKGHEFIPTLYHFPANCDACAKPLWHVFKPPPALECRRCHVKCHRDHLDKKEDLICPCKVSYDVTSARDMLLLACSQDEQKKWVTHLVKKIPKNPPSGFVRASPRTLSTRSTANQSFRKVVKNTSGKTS

[7] = tested on: GEF16 transfected NIH3T3 cells; assay: Cell proliferation assay (Celltiter Aq96); format: cell-based, mouse; settings: 10 μM, FIG. 3B, P>0.05
Description: FIG. 1D is a bar chart showing the results of Cell AQ^96 assessment of the growth of GEF16 and vector transfected cells seeded in a 96 well plate at 1×10^3 cells per well. These were incubated for 3 days followed by addition of reagent to determine the starting point for the assay. 10 μM of either Y27632 or DMSO were then added to wells containing both cell types and Cell AQ^96 absorbance measured at 6, 8 and 10 days. At day 3 cells were 100% confluent which was determined by phase contrast visual inspection of the cultures at ×20 magnification;
Cell proliferation was investigated using Celltiter Aq^96 reagent (Promega, Southampton, UK) according to the manufacturer's protocol. Cells were seeded into a 96-well plate at a density of 1×10^3 cells/well allowing 3 wells per data point and allowed to attach for a set period. Following this, the initial starting point 490 nm absorbance was determined by adding 20 μl of Aq^96 reagent to each well and incubating for 4 h at 37° C. in 5% CO2 (96-well plate reader, Dynex Technologies, West Sussex, UK). The various compounds (Y27632 or compounds of the invention) or DMSO control were then added to duplicate wells and the absorbance determined in the same way at the time points indicated. Each data set shown is representative of three separate experiments.

ROCK2, sequence (O75116 whole entry): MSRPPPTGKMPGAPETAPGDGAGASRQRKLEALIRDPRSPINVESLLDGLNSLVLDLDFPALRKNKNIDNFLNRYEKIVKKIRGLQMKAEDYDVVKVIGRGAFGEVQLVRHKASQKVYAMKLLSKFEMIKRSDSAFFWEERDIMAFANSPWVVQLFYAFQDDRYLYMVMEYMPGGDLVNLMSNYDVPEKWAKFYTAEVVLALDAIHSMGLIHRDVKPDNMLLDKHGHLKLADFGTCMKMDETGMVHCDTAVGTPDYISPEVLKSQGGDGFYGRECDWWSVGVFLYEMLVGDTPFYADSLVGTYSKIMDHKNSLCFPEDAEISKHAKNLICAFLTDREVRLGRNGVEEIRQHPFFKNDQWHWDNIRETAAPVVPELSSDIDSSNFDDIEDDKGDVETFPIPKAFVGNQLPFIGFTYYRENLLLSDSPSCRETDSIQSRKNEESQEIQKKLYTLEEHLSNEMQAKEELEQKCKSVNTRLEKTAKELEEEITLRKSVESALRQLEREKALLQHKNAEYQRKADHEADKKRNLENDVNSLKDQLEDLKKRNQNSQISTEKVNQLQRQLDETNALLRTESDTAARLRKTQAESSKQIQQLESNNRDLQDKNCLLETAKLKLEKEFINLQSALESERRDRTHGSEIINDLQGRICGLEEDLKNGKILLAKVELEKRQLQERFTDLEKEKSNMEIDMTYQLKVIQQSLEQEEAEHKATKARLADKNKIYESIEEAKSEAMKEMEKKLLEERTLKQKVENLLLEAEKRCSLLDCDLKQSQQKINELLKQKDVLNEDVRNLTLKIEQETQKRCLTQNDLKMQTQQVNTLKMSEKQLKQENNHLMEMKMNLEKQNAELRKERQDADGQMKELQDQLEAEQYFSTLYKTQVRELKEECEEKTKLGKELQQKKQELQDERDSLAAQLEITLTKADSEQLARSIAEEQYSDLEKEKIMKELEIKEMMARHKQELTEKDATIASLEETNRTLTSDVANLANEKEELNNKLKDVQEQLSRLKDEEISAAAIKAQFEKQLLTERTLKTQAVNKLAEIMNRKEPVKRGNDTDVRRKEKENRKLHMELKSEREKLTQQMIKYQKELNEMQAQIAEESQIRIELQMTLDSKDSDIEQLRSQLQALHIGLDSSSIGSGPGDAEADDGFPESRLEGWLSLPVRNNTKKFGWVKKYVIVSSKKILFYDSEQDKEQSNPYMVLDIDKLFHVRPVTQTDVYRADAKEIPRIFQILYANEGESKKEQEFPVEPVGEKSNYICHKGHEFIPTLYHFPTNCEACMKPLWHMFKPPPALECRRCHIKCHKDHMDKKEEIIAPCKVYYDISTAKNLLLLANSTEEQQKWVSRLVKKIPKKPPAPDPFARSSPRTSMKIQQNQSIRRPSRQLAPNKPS

- activity against ROCK2 [1]: less activity against ROCKs than YA2
- activity against ROCK1 [6]: less activity against ROCKs than YA2
SMILES: CC(C)(C)OC(=O)NCc1ccc(C(=O)Nc2ccncc2)cc1 [YA1, 4-(Pyridin-4-ylcarbamoyl)benzylcarbamic acid tert-butyl ester]
- number of transformed foci after transient exposure and withdrawal ([2]; 10 μM for 2, 4, 6, 8, 10 days, then 10 day chase in normal media): progressive decrease in the number of transformed foci associated with increased time of exposure
- transformed focus formation after treatment, re-seeding and chase ([2]; 10 μM for 2-10 days, re-seeded at 2×10^5, 10 day chase without inhibitor): able to suppress transformed focus formation
- formation of GEF16 transformed colonies ([2]; 10 μM, 10 days, post confluent cultures): able to block transformed GEF16 colony formation to an extent comparable to the inhibition achieved using Y27632; also recorded: greatest ability to inhibit GEF16 transformed colonies
- effect on pre-formed transformed colonies ([2]; colonies formed for 10 days, then 10 μM or 20 μM for 3 and 6 days): marked reduction in their numbers
- number of double LY/PKH67 labelled cells compared to DMSO control [3]: approximately 3 times
- final saturation density / growth of transformed cells in co-culture with non-transformed cells [4]: marked reduction in the final saturation density of the cultures; also recorded: more effective at suppressing the growth of transformed cells when these are in contact with non-transformed cells; also recorded: clearly restored when these are co-cultured with non-transformed NIH3T3 cells
- ROCK inhibitory activity compared to Y27632 [5]: lower ROCK inhibitory activity; also recorded: significantly less activity against ROCK than did their structural analogue Y27632
- growth rates of sub-confluent GEF16 polyclonal cells versus DMSO control [7]: no detectable difference in growth rates
